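Growth conditions: 96-well plates. Treatment: test compound, 48 hours, 5 concentrations. Analysis: linear interpolation between bracketing concentrations; unreached endpoints set to highest concentration. TGI is the concentration that stops growth completely.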
Tests used:
Assay in all cases: NCI tumour cell line growth inhibition, 48 h
786-0 renal = system: 786-0 renal
A498 renal = system: A498 renal
A549 NSCLC = system: A549 NSCLC
ACHN renal = system: ACHN renal
BT-549 breast = system: BT-549 breast
CCRF-CEM leukemia = system: CCRF-CEM leukemia
DU-145 prostate = system: DU-145 prostate
EKVX NSCLC = system: EKVX NSCLC
HCC-2998 colon = system: HCC-2998 colon
HCT-116 colon = system: HCT-116 colon
HCT-15 colon = system: HCT-15 colon
HL-60(TB) leukemia = system: HL-60(TB) leukemia
HOP-62 NSCLC = system: HOP-62 NSCLC
HOP-92 NSCLC = system: HOP-92 NSCLC
HS 578T breast = system: HS 578T breast
HT29 colon = system: HT29 colon
IGROV1 ovarian = system: IGROV1 ovarian
K-562 leukemia = system: K-562 leukemia
KM12 colon = system: KM12 colon
M14 melanoma = system: M14 melanoma
MALME-3M melanoma = system: MALME-3M melanoma
MCF7 breast = system: MCF7 breast
MDA-MB-231 breast = system: MDA-MB-231 breast
MDA-MB-435 = system: MDA-MB-435
MDA-N = system: MDA-N
MOLT-4 leukemia = system: MOLT-4 leukemia
NCI-H226 lung = system: NCI-H226 lung
NCI-H23 lung = system: NCI-H23 lung
NCI-H460 lung = system: NCI-H460 lung
NCI/ADR-RES ovarian = system: NCI/ADR-RES ovarian
OVCAR-3 ovarian = system: OVCAR-3 ovarian
OVCAR-5 ovarian = system: OVCAR-5 ovarian
OVCAR-8 ovarian = system: OVCAR-8 ovarian
PC-3 prostate = system: PC-3 prostate
RXF 393 renal = system: RXF 393 renal
SF-295 CNS = system: SF-295 CNS
SK-MEL-2 melanoma = system: SK-MEL-2 melanoma
SK-MEL-28 melanoma = system: SK-MEL-28 melanoma
SK-MEL-5 melanoma = system: SK-MEL-5 melanoma
SK-OV-3 ovarian = system: SK-OV-3 ovarian
SN12C renal = system: SN12C renal
SNB-19 CNS = system: SNB-19 CNS
SR leukemia = system: SR leukemia
SW-620 colon = system: SW-620 colon
T-47D breast = system: T-47D breast
TK-10 renal = system: TK-10 renal
U251 CNS = system: U251 CNS
UACC-62 melanoma = system: UACC-62 melanoma
UO-31 renal = system: UO-31 renal
CAKI-1 renal = system: CAKI-1 renal
COLO 205 colon = system: COLO 205 colon
LOX IMVI melanoma = system: LOX IMVI melanoma
NCI-H522 lung = system: NCI-H522 lung
OVCAR-4 ovarian = system: OVCAR-4 ovarian
RPMI-8226 leukemia = system: RPMI-8226 leukemia
SF-268 CNS = system: SF-268 CNS
SF-539 CNS = system: SF-539 CNS
SNB-75 CNS = system: SNB-75 CNS
UACC-257 melanoma = system: UACC-257 melanoma

Compound: CN(C)c1ccc(/C=C/c2ccc3ccccc3[n+]2C)cc1
- TGI (786-0 renal): > 100 µM
- TGI (A498 renal): 60.1 µM
- TGI (A549 NSCLC): 22.5 µM
- TGI (ACHN renal): 55.3 µM
- TGI (BT-549 breast): 10.5 µM
- TGI (CCRF-CEM leukemia): 24.6 µM
- TGI (DU-145 prostate): 25.5 µM
- TGI (EKVX NSCLC): 5.85 µM
- TGI (HCC-2998 colon): 16.3 µM
- TGI (HCT-116 colon): 10.9 µM
- TGI (HCT-15 colon): 30.4 µM
- TGI (HL-60(TB) leukemia): 3.48 µM
- TGI (HOP-62 NSCLC): 25.6 µM
- TGI (HOP-92 NSCLC): 5.19 µM
- TGI (HS 578T breast): > 100 µM
- TGI (HT29 colon): 8.46 µM
- TGI (IGROV1 ovarian): > 100 µM
- TGI (K-562 leukemia): > 100 µM
- TGI (KM12 colon): 13.6 µM
- TGI (M14 melanoma): 17.1 µM
- TGI (MALME-3M melanoma): 11.2 µM
- TGI (MCF7 breast): 14.4 µM
- TGI (MDA-MB-231 breast): 12.6 µM
- TGI (MDA-MB-435): 13.3 µM
- TGI (MDA-N): 13 µM
- TGI (MOLT-4 leukemia): 4.53 µM
- TGI (NCI-H226 lung): 13.3 µM
- TGI (NCI-H23 lung): 9.26 µM
- TGI (NCI-H460 lung): 12 µM
- TGI (NCI/ADR-RES ovarian): > 100 µM
- TGI (OVCAR-3 ovarian): 15.5 µM
- TGI (OVCAR-5 ovarian): 26.2 µM
- TGI (OVCAR-8 ovarian): 4.3 µM
- TGI (PC-3 prostate): 9.84 µM
- TGI (RXF 393 renal): 9.84 µM
- TGI (SF-295 CNS): 10 µM
- TGI (SK-MEL-2 melanoma): 4.02 µM
- TGI (SK-MEL-28 melanoma): 12.7 µM
- TGI (SK-MEL-5 melanoma): 13.5 µM
- TGI (SK-OV-3 ovarian): 60.6 µM
- TGI (SN12C renal): 15.8 µM
- TGI (SNB-19 CNS): > 100 µM
- TGI (SR leukemia): 4.34 µM
- TGI (SW-620 colon): 12.3 µM
- TGI (T-47D breast): 6.26 µM
- TGI (TK-10 renal): 17.7 µM
- TGI (U251 CNS): 20.7 µM
- TGI (UACC-62 melanoma): 41 µM
- TGI (UO-31 renal): 9.62 µM

Compound: C=CC(=O)NC(O)(C(=O)OCC)C(F)(F)F (stereo not given)
- TGI (A549 NSCLC): > 100 µM
- TGI (ACHN renal): > 100 µM
- TGI (BT-549 breast): > 100 µM
- TGI (CAKI-1 renal): > 100 µM
- TGI (CCRF-CEM leukemia): > 100 µM
- TGI (COLO 205 colon): > 100 µM
- TGI (DU-145 prostate): > 100 µM
- TGI (EKVX NSCLC): > 100 µM
- TGI (HCC-2998 colon): > 100 µM
- TGI (HCT-116 colon): > 100 µM
- TGI (HCT-15 colon): > 100 µM
- TGI (HL-60(TB) leukemia): > 100 µM
- TGI (HOP-62 NSCLC): > 100 µM
- TGI (HOP-92 NSCLC): > 100 µM
- TGI (HS 578T breast): > 100 µM
- TGI (HT29 colon): > 100 µM
- TGI (IGROV1 ovarian): > 100 µM
- TGI (K-562 leukemia): > 100 µM
- TGI (KM12 colon): > 100 µM
- TGI (LOX IMVI melanoma): > 100 µM
- TGI (M14 melanoma): > 100 µM
- TGI (MALME-3M melanoma): > 100 µM
- TGI (MCF7 breast): > 100 µM
- TGI (MDA-MB-231 breast): > 100 µM
- TGI (MDA-MB-435): > 100 µM
- TGI (MDA-N): > 100 µM
- TGI (MOLT-4 leukemia): > 100 µM
- TGI (NCI-H226 lung): > 100 µM
- TGI (NCI-H23 lung): > 100 µM
- TGI (NCI-H522 lung): > 100 µM
- TGI (NCI/ADR-RES ovarian): > 100 µM
- TGI (OVCAR-3 ovarian): > 100 µM
- TGI (OVCAR-4 ovarian): > 100 µM
- TGI (OVCAR-5 ovarian): > 100 µM
- TGI (OVCAR-8 ovarian): > 100 µM
- TGI (PC-3 prostate): > 100 µM
- TGI (RPMI-8226 leukemia): > 100 µM
- TGI (RXF 393 renal): > 100 µM
- TGI (SF-268 CNS): > 100 µM
- TGI (SF-295 CNS): > 100 µM
- TGI (SF-539 CNS): > 100 µM
- TGI (SK-MEL-2 melanoma): > 100 µM
- TGI (SK-MEL-28 melanoma): > 100 µM
- TGI (SK-MEL-5 melanoma): > 100 µM
- TGI (SK-OV-3 ovarian): > 100 µM
- TGI (SN12C renal): > 100 µM
- TGI (SNB-19 CNS): > 100 µM
- TGI (SNB-75 CNS): > 100 µM
- TGI (SR leukemia): > 100 µM
- TGI (SW-620 colon): > 100 µM
- TGI (T-47D breast): > 100 µM
- TGI (TK-10 renal): > 100 µM
- TGI (U251 CNS): > 100 µM
- TGI (UACC-257 melanoma): > 100 µM
- TGI (UACC-62 melanoma): > 100 µM
- TGI (UO-31 renal): > 100 µM

— PubChem BioAssay (NCI)
